How the values were obtained:
[1] = target: T1, Kv4.3 current (hKv4.3 gene expressed in HEK 293 cells) (Homo sapiens, UniProt Q9UK17); experiment: Whole-cell patch-clamp, Kv4.3 current in HEK 293 cells; assay type: cell-based; conditions: 30 μM, representative cells
T1 construct: expressed in transfected cells
T1 sequence (Q9UK17 1-655): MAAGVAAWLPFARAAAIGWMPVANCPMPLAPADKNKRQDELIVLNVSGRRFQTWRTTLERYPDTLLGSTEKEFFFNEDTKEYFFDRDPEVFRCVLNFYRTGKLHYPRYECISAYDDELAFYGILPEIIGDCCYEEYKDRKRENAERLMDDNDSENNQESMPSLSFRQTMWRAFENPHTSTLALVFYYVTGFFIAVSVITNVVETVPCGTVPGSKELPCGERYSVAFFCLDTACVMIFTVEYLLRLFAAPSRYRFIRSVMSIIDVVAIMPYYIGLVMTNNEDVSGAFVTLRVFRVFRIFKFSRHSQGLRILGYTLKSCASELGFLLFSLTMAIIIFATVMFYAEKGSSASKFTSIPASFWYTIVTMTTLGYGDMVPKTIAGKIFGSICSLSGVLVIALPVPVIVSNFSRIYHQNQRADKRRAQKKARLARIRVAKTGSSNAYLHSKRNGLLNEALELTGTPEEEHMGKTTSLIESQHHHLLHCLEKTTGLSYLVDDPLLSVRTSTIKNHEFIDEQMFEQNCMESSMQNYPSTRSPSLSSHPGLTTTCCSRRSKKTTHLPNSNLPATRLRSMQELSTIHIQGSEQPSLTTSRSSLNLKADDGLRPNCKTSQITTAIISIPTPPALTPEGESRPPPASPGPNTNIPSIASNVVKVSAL
Procedure: HEK 293 cell line stably expressing the hKV1.5 gene (Wu et al., 2011) or hKv4.3 gene (Wu et al., 2013) was maintained in Dulbecco's modified eagle's medium (DMEM, Invitrogen, Hong Kong) supplemented with 10% fetal bovine serum and 400 μg/mL G418 in a 5% CO2 incubator. Cells were seeded on a glass cover slip for electrophysiology recording.
(§1) Ionic currents in HEK 293 cell lines and rat atrial myocytes were measured by the standard whole-cell patch-clamp technique using a standard pipette and bath solution with an EPC-10 amplifier and Pulse software (HEKA, Lambrecht, Germany). A 3M KCl-agar salt bridge was used as the reference electrode. The current signal was sampled at 5 kHz, recorded and stored in the hard disk of an IBM compatible computer. All experiments were conducted at room temperature (22-23° C.).
However, Kv1.5 current (FIG. 3D), Kv4.3 current (FIG. 3E) or IKACh (FIG. 3F) was inhibited by 10 μM acacetin in representative cells consistent with experimental reports.

IKACh = target: T2, IKACh (Rattus norvegicus, UniProt P48548+P63251); experiment: Whole-cell patch-clamp, IKACh activated by 5 μM carbachol in rat atrial myocytes; assay type: cell-based; conditions: 30 μM, representative cells
T2 construct: from tissue; host or cells: freshly isolated left atrial myocytes of SD rats
T2 sequence (P63251 1-501): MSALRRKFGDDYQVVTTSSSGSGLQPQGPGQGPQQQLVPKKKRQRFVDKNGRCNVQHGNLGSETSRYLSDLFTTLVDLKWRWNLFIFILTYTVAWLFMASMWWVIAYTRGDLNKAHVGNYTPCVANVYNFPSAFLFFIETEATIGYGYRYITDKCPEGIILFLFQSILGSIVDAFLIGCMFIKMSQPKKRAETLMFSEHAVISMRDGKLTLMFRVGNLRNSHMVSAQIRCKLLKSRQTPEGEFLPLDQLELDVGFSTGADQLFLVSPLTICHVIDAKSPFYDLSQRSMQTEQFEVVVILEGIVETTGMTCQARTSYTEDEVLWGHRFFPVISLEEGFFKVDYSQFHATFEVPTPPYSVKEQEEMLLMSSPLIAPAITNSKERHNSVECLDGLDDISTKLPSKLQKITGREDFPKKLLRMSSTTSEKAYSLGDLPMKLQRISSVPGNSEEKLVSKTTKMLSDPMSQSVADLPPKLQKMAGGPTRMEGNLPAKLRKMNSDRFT
T2 sequence (P48548 1-419): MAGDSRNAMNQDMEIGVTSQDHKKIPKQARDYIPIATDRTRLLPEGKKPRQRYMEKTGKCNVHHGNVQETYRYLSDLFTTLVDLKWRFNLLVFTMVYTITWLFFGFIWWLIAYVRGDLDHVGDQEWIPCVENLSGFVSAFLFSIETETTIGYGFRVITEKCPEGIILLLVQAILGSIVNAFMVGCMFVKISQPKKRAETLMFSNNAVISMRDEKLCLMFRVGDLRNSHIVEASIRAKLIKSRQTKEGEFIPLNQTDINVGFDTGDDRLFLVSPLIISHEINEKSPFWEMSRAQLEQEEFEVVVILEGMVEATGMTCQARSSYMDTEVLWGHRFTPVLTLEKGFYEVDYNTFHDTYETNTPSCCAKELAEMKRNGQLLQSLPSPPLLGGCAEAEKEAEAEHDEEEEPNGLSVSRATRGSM
Procedure: Rat atrial myocytes were prepared with the procedure described previously (Li et al., 2002) with a slight modification. Briefly, After SD rats (250-300 g) were anesthetized with pentobarbital (30 mg/kg i.p.), the heart was mounted to a Langendorff heart perfusion apparatus via the aorta and perfused with HEPES-buffered Tyrode's solution at 37° C. gassed with 100% 02 for 5 min. The heart was perfused with Ca^2+-free Tyrode's solution for 5-8 min, followed by Ca^2+-free Tyrode's solution containing 0.06% collagenase (Type II, Worthington Biochemical, Lakewood, N.J., USA) and 0.1% bovine serum albumin (Sigma). When the heart became softened the left atrium was excised and placed in a high-K storage medium at room temperature for 2 h, and then used for electrophysiological recording (Li et al., 2002).
as §1, with “C.). […]” for “C.).”

Compound: COc1ccc(-c2cc(=O)c3c(O)cc(OP(=O)(O)O)cc3o2)cc1 [Prodrug A]
- effect on Kv4.3 current [1]: no inhibitory effect
- effect on IKACh (IKACh): no inhibitory effect

Reference: patent publication US9260461B2, “Water-soluble derivatives and prodrugs of acacetin and methods of making and using thereof” (Versitech Limited, priority 2014, dated 2016)
